Earlier results on 1 sequence are cited in US20250041383A1, “MODIFIED CAVEOLIN-1 PEPTIDES FOR THE TREATMENT OF POST-ACUTE COVID-19” (priority 2021, published 2025).

Ends that are not written are not given here.

In the data set the test system is lung. The settings on record: treatment with the CSP 20-mer; literature.

Turning to “DGIWKASFTTFTVTKYWFYR (not fully specified) [CSP 20-mer, the full-length CSD of caveolin-1, amino acids 82-101]”, the collagen deposition entry is listed as “reduced”, the “expression of profibrogenic signaling molecules” value is “down-regulation”, the “lung aSMA” value is “reduced” and the lung epithelial apoptosis entry is on record as “reduced”.
